Results on one compound are retold here after publication PMC8880564, “Design, Synthesis, and Biological Evaluation of a Novel VEGFR-2 Inhibitor Based on a 1,2,5-Oxadiazole-2-Oxide Scaffold with MAPK Signaling Pathway Inhibition” (Pharmaceuticals, 2022).

Each structure is given as a SMILES string.

Assay [1] concerns HepG2 cells. Description: Intracellular measurement of NO by DAF-FM diacetate flow cytometry. Format: cell-based, human. To be noted: HepG2, 11 µM, 1 h, DAF-FM DA; DMSO 0.1%. The protocol: The NO-releasing properties of 12b were evaluated by measuring the level of intracellular NO by flow cytometry, using a cell-permeable and photo-stable NO fluorescent indicator, 3-Amino-4-aminomethyl-2’,7’-difluorofluorescein diacetate (DAF-FM DA), with a detection limit of ~3 nM. DAF-FM diacetate penetrates the cells and is deacetylated by esterase enzyme to yield a non-fluorescent dye, DAF-FM, which, upon reaction with NO, produces a fluorescent benzotriazole product. Compound 12b was efficiently able to increase the production of NO in the treated cells (9.9% vs. 0.1% in DMSO-treated cells; Figure 9). Furthermore, compound 12b increased NO production as efficiently as the positive control reference drug JS-k.
HepG2 cells were collected, and the number was adjusted at 10^6 cells/test, and then they were stained with 5 µM DAF-FM™ diacetate (Invitrogen, Cat. No. D-23844) for 60 min at 37 °C and 5% CO2. After that, the stained cells were washed to remove the excess probe, and then were re-incubated for another 30 min. Following that, the stained cells were treated either with 12b (5.5 or 11 µM) or JS-K as a positive nitric oxide donor or DMSO as a negative control for another 1 h. The fluorescence was detected by flow cytometry using the FITC detection system in a BD flow Cytometer.
Background: A flow cytometer gives signals particle by particle.

For the next assay, the system named is MDA-MB-231. Description: MTT cell viability assay. The assay is classed as cell-based. To be noted: Homo sapiens, Breast, 48 h, ± SD of triplicates. The protocol: (§1) In addition, the morphological changes in 12b-treated cancer cell lines at concentrations of 6.25 and 12.50 µM are shown in Figure 6.
(§2) According to the procedures of Skehan et al. (with minor modifications), the cancer or normal cells were seeded in a 96-well plate (100 µL/well). After overnight incubation at 37 °C and 5% CO2, the cells were incubated with 50 µM of each tested compound or DMSO (0.5% v/v). After 48 h of incubation, MTT (3-(4,5-dimethylthiazoyl)-2,5-diphenyl-tetrazolium bromide) 5 mg/mL Phosphate-Buffered Saline (PBS) was added, and the plate was incubated for 4 h. After that, acidified sodium dodecyl sulfate (SDS) solution (10% SDS containing 0.01N HCl in 1× PBS) was used to solubilize formazan crystals. The absorbance was measured after 14 h of incubation at λ570–630 nm by a Biotek plate reader (Gen5™).

A further assay concerns HepG2. Description: MTT cell viability assay. The assay is classed as cell-based. To be noted: Homo sapiens, Liver, 48 h, ± SD of triplicates. The method, then: as §1, §2
In general terms: Tetrazolium dyes change colour on reduction, which living cells bring about.

Another assay deals with SKOV-3. Description: MTT cell viability assay. The assay is classed as cell-based. The conditions noted are these: Homo sapiens, SK-OV-3, Ovarian, 48 h, ± SD of triplicates. The method, then:
as §1, §2

A further assay relates to MCF-7. Description: MTT cell viability assay. Format: cell-based. The conditions noted are these: Homo sapiens, MCF7, Breast, 48 h, ± SD of triplicates. The protocol:
as §1, §2

The next assay has as its system A2780. Description: MTT cell viability assay. The assay is classed as cell-based. The conditions noted are these: Homo sapiens, Ovarian, 48 h, ± SD of triplicates. The protocol:
as §1, §2

A further assay deals with HT-29. Description: MTT cell viability assay. Format: cell-based. The conditions noted are these: Homo sapiens, Colon, 48 h, ± SD of triplicates. The method, then: as §1, §2
In a further assay the test system is A2780CP. Description: MTT cell viability assay. Format: cell-based. To be noted: Homo sapiens, A2780C/P, Ovarian, 48 h, ± SD of triplicates. The protocol:
as §1, §2

Assay [2] concerns HepG2 cells. Description: Cell-cycle analysis by flow cytometry (PI). The assay is classed as cell-based, human. The conditions noted are these: HepG2, 48 h; 5.6 in DMSO-treated cells. The method, then:
The mechanism of action of 12b was investigated by evaluating its effectiveness in modulating the cell cycle and induction of apoptosis.
According to Gray et al., HepG2 cells were seeded in a 6-well plate (2 mL/well) and incubated at 37 °C and 5% CO2 for 12 h. Cell synchronization at the G1 phase was performed by incubating the cells with serum-free medium for 12 h, then cells were treated with 5.5 or 11 μM of 12b. After 48 h of incubation, cells were washed twice with ice-cold 1× PBS and subjected to trypsinization. The detached cells were centrifuged at 500× g for 5 min at 4 °C. Then, the cell pellet was resuspended in ice-cold 1× PBS and fixed with absolute ethanol. After 2 h of incubation at −20 °C, the fixed cells were washed with ice-cold 1× PBS. The cell pellet was resuspended in propidium (PI)/RNase (BD Biosciences, BDB550825, Franklin Lakes, NJ, USA) and incubated for 30 min at room temperature (RT) in the dark, then the DNA content in each phase was measured by flow cytometry using BD FACS Calibur.

A further assay has as its system BCL-2. Description: Quantitative RT-PCR for gene expression in HepG2 cells. The assay is classed as cell-based, human. To be noted: HepG2, 12 h. An excerpt:
(§3) Epithelial cells express specific genes involved in maintaining apical–basal polarity and adherence, such as epithelial E-cadherin. The epithelial cells migrate to distant locations by over-expressing mesenchymal genes, including neuronal N-cadherin and vimentin [58]. Cancer aggressiveness has been positively correlated with the over-expression of N-cadherin. Therefore, in this study, the partial mechanism of activity of 12b was investigated, by quantitative RT-PCR, with respect to E-cadherin and N-cadherin. […] Additionally, the ability of 12b was confirmed by detecting the change in expression of both pro-apoptotic (Bax) and anti-apoptotic (BCL-2) genes. Compound 12b-treated HepG2 cells (for 12 h) expressed a low level of BCL-2 and over-expressed Bax (Figure 11A).
(§4) HepG2 cells were treated either with DMSO, 5.5 or 11 µM of 12b for 12 h, and then the total RNA was extracted by TRIzol™ Reagent (Invitrogen, Cat. No. 15596018). The RNA concentration and purity were evaluated using a Thermo Scientific™ NanoDrop™ One Microvolume UV-Vis Spectrophotometer. Four µg RNA was reverse transcribed to cDNA using the RevertAid First Strand cDNA Synthesis kit. The level of N-cadherin, E-cadherin, BCL-2, Bax, and GAPDH was detected using the SensiFAST™ SYBR® High-ROX Kit with the StepOne™ Real-Time PCR System (Applied Biosystems™). The expression level was firstly normalized to the level of GAPDH, then calculated as 2^−(ΔΔCt), where ΔCt 12b = (Ct […] Ct GAPDH); ΔCt DMSO = (Ct DMSO ™ Ct GAPDH); ΔΔCt = (ΔCt 12b ™ ΔCt DMSO). Ct is the cycle threshold.

The next assay has as its system E-cadherin. The assay is described as above. Format: cell-based, human. To be noted: HepG2, 5.5 or 11 µM, 12 h.
Description: as §3, §4

Another assay concerns N-cadherin. Described as above. The assay is classed as cell-based, human. To be noted: HepG2, 5.5 or 11 µM, 12 h.
Description: as §3, §4

The test system of the next assay is Bax. Described as above. The assay is classed as cell-based, human. To be noted: HepG2, 12 h.
Description: as §3, §4

As for `[O-][n+]1onc(-c2ccccc2)c1CNc1ccc(Nc2nc(C(F)(F)F)nc3c2cnn3-c2ccc(Br)cc2)cc1` [12b, 3-(((4-((1-(4-bromophenyl)-6-(trifluoromethyl)-1H-pyrazolo[3,4-d]pyrimidin-4-yl)amino)phenyl)amino)methyl)-4-phenyl-1,2,5-oxadiazole 2-oxide], in the assay with HepG2 cells [1], the “intracellular NO production (P2)” value is on record as 9.9%. Moreover, the concentration for half-maximal inhibition (IC50) in the assay with MDA-MB-231 stood at 13 ± 0.2 µM; in the assay with HepG2, 11.5 ± 0.5 µM; with SKOV-3, 18.6 ± 0.2 µM; in the assay on MCF-7, 22.3 ± 0.3 µM; in the assay on A2780, 15 ± 0.15 µM; with HT-29, 15 ± 0.24 µM. The compound also displayed an IC50 in the assay with A2780CP of 11.6 ± 0.1 µM. In addition, in the assay with HepG2 cells [2], the “cell-cycle arrest at subG1” value is 24. Moreover, in the assay with BCL-2, the “expression of BCL-2” value is recorded as “low level”. In addition, in the assay on E-cadherin, the “expression of epithelial E-cadherin” value is listed as “increased expression”. Also, the “expression of neuronal N-cadherin” value in the assay on N-cadherin is “lower expression”. In addition, in the assay with Bax, the “expression of Bax” value is on record as “over-expressed”.

The IC50 is the concentration needed to halve the response being measured.
